Assay results taken from US20130012432A1, “Peptides for Treatment of Obesity” (Novo Nordisk A/S, priority 2010, published 2013).
pKi: −log10 of the molar value. Converted amounts (≈) assume the structure as drawn. Positions of bridges follow the written chain, without caps; N, C: chain ends. Non-standard residues stand in square brackets, D forms with d. Residues, ends and D or L forms follow the SMILES beside them. Groups on a side chain read outwards from the residue. *: point of attachment. Palmitoyl(16-(5-tetrazolyl)) = O=C(CCCCCCCCCCCCCCCc1nnn[nH]1)*; Lys(CH2CO2H)2 = N[C@@H](CCCCN(CC(=O)O)CC(=O)O)C(=O)O; C18 diacid = O=C(O)CCCCCCCCCCCCCCCCC(=O)*; C16 diacid = O=C(O)CCCCCCCCCCCCCCC(=O)*; NTA = O=C(O)CN(CC(=O)O)CC(=O)*; hCys = N[C@@H](CCS)C(=O)O; Orn = NCCC[C@H](N)C(=O)O; Dap = NC[C@H](N)C(=O)O; AEEA = NCCOCCOCC(=O)O

Legend:
physchem = test: physchem
Experimental: From a stock solution in vehicle, either H2O or 10 mM phosphate, containing 1 mg (as weighed) compound per ml, 8-11 aliquots are withdrawn and pH-adjusted individually with HCl/NaOH, to cover the whole pH range.

human MC4 receptor = human MC4 receptor (Homo sapiens, UniProt P32245); test: biochemical
human MC4 receptor, sequence (P32245 whole entry): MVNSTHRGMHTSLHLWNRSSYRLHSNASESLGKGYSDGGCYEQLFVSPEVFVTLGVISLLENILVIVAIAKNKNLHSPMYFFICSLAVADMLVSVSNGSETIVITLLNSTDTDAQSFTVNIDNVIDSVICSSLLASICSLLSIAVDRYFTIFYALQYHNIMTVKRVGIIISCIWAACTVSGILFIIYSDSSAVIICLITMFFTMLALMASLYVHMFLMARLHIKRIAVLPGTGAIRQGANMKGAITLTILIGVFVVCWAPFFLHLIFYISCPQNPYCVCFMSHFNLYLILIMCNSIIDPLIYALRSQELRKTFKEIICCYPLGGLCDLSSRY
Experimental: Assay (V)—Melanocortin Receptor 4 (MC4) Binding Assay
In Vitro ^125NDP-α-MSH Binding to Recombinant BHK Cells Expressing Human MC4 Receptor (Filtration Assay).
The assay was performed in 5 ml minisorb vials (Sarstedt No. 55.526) or in 96-well filter-plates (Millipore MADVN 6550), and using BHK cells expressing the human MC4 receptor using BHK cells stably expressing the human MC4 receptor. The membranes were prepared from frozen or fresh cells that were homogenized in 20 mM HEPES pH 7.1, 5 mM MgCl2 and 1 mg/ml bacitracin and centrifuged at 15000 rpm at 4° C., 10 min in a Sorvall RC 5B plus, SS-34 rotor. The supernatant was discarded, and the pellets were re-suspended in buffer, homogenized and centrifuged two more times. The final pellets were resuspended in the buffer mentioned above, and the protein concentration was measured and adjusted with buffer to 14 to 17 mg/ml and the membrane preparation were kept at −80° C. until assay. The assay was run directly on a dilution of this cell membrane suspension, without any further preparation. The BHK cell membranes are kept at −80° C. until assay, and the assay is run directly on a dilution of this cell membrane suspension, without further preparation. The suspension is diluted to give maximally 10% specific binding, i.e. to approx. 50-100 fold dilution. The assay was performed in a total volume of 200 μl: 50 μl of cell suspension, 50 μl of ^125NDP-α-MSH (≈79 pM in final concentration), 50 μl of test compound and 50 μl binding buffer (pH 7) mixed and incubated for 2 h at 25° C. [binding buffer: 25 mM HEPES, pH 7.0, 1 mM CaCl2, 1 mM MgSO4, 1 mM EGTA, 0.02% Bacitracin, 0.005% Tween™ 20 and 0.1% HSA or, alternatively, 0.1% ovalbumin (Sigma; catalogue No. A-5503)]. Test compounds were dissolved in DMSO and diluted in binding buffer. Radiolabelled ligand and membranes were diluted in binding buffer. The incubation was stopped by dilution with 2×100 μl ice-cold 0.9% NaCl. The radioactivity retained on the filters was counted using a Cobra II auto gamma counter.
The data were analysed by non-linear regression analysis of binding curves, using the Windows™ program GraphPad™ Prism (GraphPad Software, USA).

MC1 receptor = MC1 receptor (Homo sapiens, UniProt Q01726); test: biochemical
MC1 receptor, sequence (Q01726 whole entry): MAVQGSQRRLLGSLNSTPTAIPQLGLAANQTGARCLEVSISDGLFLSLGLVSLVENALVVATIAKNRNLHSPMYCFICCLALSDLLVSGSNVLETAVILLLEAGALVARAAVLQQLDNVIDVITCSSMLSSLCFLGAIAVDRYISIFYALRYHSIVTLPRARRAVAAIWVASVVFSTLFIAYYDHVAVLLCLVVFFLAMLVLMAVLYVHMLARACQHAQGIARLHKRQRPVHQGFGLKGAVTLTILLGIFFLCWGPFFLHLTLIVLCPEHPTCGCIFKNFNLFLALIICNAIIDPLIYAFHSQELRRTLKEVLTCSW
Method in brief: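 Radioligand competition on membranes (25 μg/ml) of BHK cells stably expressing MC1, with 22 pM final 125I-NDP-α-MSH in 25 mM HEPES pH 7.4, Ca/Mg, EDTA, 0.1% HSA (or ovalbumin), 0.005% Tween 20. Incubated 90 min at 30 °C, filtered over PEI-treated GF/B; curves fitted by non-linear regression.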

For `CC(=O)N[C@H]1CCCNC(=O)C[C@@H](C(=O)N2CCC[C@H]2C(=O)N[C@@H](CO)C(=O)N[C@@H](CO)C(=O)N[C@@H](CO)C(=O)N[C@@H](CCCCN(CC(=O)O)CC(=O)O)C(=O)N[C@@H](CO)C(=O)N[C@@H](CO)C(=O)N[C@@H](CCCCNC(=O)COCCOCCNC(=O)CCCCCCCCCCCCCCCCC(=O)O)C(N)=O)NC(=O)[C@H](Cc2c[nH]c3ccccc23)NC(=O)[C@H](CCCNC(=N)N)NC(=O)[C@@H](Cc2ccccc2)NC(=O)[C@H](Cc2c[nH]cn2)NC1=O` [Example 14, Ac-c[Orn-His-D-Phe-Arg-Trp-Asp]-Pro-Ser-Ser-Ser-Lys(biscarboxymethyl)-Ser-Ser-Lys({2-[2-(17-carboxyheptadecanoylamino)ethoxy]ethoxy}acetyl)-NH2] (Ac-[Orn]H[dF]RWDPSSS[Lys(CH2CO2H)2]SSK([AEEA-C18 diacid])-NH2; lactam 1-6), the solubility (physchem; pH 6.4, Solubility Conc., pH 6.4, vehicle 10 mM phosphate) was 61 µM (≈ 137 µg/mL), the solubility (physchem; pH 6.7, Solubility Conc., pH 6.7, vehicle 10 mM phosphate) was 148 µM (≈ 332 µg/mL) and the solubility (physchem; pH 6.9, Solubility Conc., pH 6.9, vehicle 10 mM phosphate) was 403 µM (≈ 904 µg/mL). It also gave a solubility (physchem; pH 7, Solubility Conc., pH 7.0, vehicle 10 mM phosphate) of 485 µM (≈ 1090 µg/mL), a solubility (physchem; pH 7.2, Solubility Conc., pH 7.2, vehicle 10 mM phosphate) of 507 µM (≈ 1140 µg/mL) and a solubility (physchem; pH 7.3, Solubility Conc., pH 7.3, vehicle 10 mM phosphate) of 535 µM (≈ 1200 µg/mL). The solubility (physchem; pH 7.4, Solubility Conc., pH 7.4, vehicle 10 mM phosphate) was 513 µM (≈ 1150 µg/mL), the solubility (physchem; pH 7.8, Solubility Conc., pH 7.8, vehicle 10 mM phosphate) was 506 µM (≈ 1140 µg/mL) and the solubility (physchem; pH 8, Solubility Conc., pH 8.0, vehicle 10 mM phosphate) was 517 µM (≈ 1160 µg/mL). It also gave a pKi (human MC4 receptor) of 9.10.

`CC(=O)N[C@H]1CC(=O)NC[C@@H](C(=O)N2CCC[C@H]2C(=O)N2CCC[C@H]2C(=O)N[C@@H](CCCNC(=N)N)C(=O)N[C@@H](CC(=O)O)C(=O)N[C@@H](CCCCNC(=O)CN(CC(=O)O)CC(=O)O)C(=O)N[C@@H](CCCCNC(=O)COCCOCCNC(=O)CCCCCCCCCCCCCCCc2nnn[nH]2)C(N)=O)NC(=O)[C@H](Cc2c[nH]c3ccccc23)NC(=O)[C@H](CCCNC(=N)N)NC(=O)[C@@H](Cc2ccccc2)NC(=O)[C@H](Cc2c[nH]cn2)NC1=O` [Example 24, Ac-c[Asp-His-D-Phe-Arg-Trp-Dap]-Pro-Pro-Arg-Asp-Lys(BCMA)-Lys[(2-{2-[16-(tetrazol-5-yl)hexadecanoylamino]ethoxy}ethoxy)acetyl]-NH2] (Ac-DH[dF]RW[Dap]PPRDK(NTA)K([AEEA-Palmitoyl(16-(5-tetrazolyl))])-NH2; lactam 1-6) gave a pKi (human MC4 receptor) of 6.97.

`CC(=O)N[C@H]1CCSSC[C@@H](C(=O)N2CCC[C@H]2C(=O)N2CCC[C@H]2C(=O)N[C@@H](CO)C(=O)N[C@@H](CCC(=O)O)C(=O)N[C@@H](CCCCN(CC(=O)O)CC(=O)O)C(=O)N[C@@H](CCCCNC(=O)COCCOCCNC(=O)CCCCCCCCCCCCCCC(=O)O)C(N)=O)NC(=O)[C@H](Cc2c[nH]c3ccccc23)NC(=O)[C@H](CCCNC(=N)N)NC(=O)[C@@H](Cc2ccccc2)NC(=O)[C@H](Cc2c[nH]cn2)NC1=O` [Example 70, Ac-c[homoCys-His-D-Phe-Arg-Trp-Cys]-Pro-Pro-Ser-Glu-Lys(biscarboxymethyl)-Lys({2-[2-(15-carboxypentadecanoylamino)ethoxy]ethoxy}acetyl)-NH2] (Ac-[hCys]H[dF]RWCPPSE[Lys(CH2CO2H)2]K([AEEA-C16 diacid])-NH2; disulfide 1-6) gave a solubility (physchem; pH 3.4, Solubility Conc.) of 190 µM (≈ 399 µg/mL), a solubility (physchem; pH 3.9, Solubility Conc.) of 65 µM (≈ 137 µg/mL) and a solubility (physchem; pH 4.4, Solubility Conc.) of 40 µM (≈ 84 µg/mL). It also gave a solubility (physchem; pH 5.5, Solubility Conc.) of 59 µM (≈ 124 µg/mL), a solubility (physchem; pH 5.6, Solubility Conc.) of 142 µM (≈ 298 µg/mL) and a solubility (physchem; pH 5.8, Solubility Conc.) of 210 µM (≈ 441 µg/mL). It also gave a solubility (physchem; pH 6.1, Solubility Conc.) of 429 µM (≈ 901 µg/mL), a solubility (physchem; pH 7.5, Solubility Conc.) of 444 µM (≈ 933 µg/mL) and a solubility (physchem; pH 7.8, Solubility Conc.) of 463 µM (≈ 973 µg/mL). For the same compound, the solubility (physchem; pH 8, Solubility Conc.) was 440 µM (≈ 924 µg/mL) and the pKi (MC1 receptor) was < 5.00.
